Measurements from patent US20040006070A1, “Intraspinal continuous infusion of midazolam hydrochloride for the treatment of pain” (priority 2002, published 2004).
Where a name gives a salt, the structure may show the parent alone.

Test: Bloodwork: complete blood count, electrolytes, extended blood chemistry
Format: in vivo, sheep
Settings: for Total Bili: ref 0.14-0.32; for K+: ref 3.9-5.4; for Phos: ref 5-7.3; for Total Prot: ref 6-7.9
Protocol: Indirect blood pressure, pulse recording, pain testing (mechanical stimulus device, cold and warm water baths see description in procedure) and weight were taken on days 1, 3, 7, 15, 22, 29, 36, and 43. Venous blood samples (15 ml drawn from the jugular vein with Vacutainer brand blood collection tubes) for complete blood count, electrolytes, and extended blood chemistry were drawn on days 1, 15, and 43 (mild procedure only light hand restraint necessary).

[1] = sheep Chicken Hawk #87, 5 mg/day, Baseline
[2] = sheep Chicken Hawk #87, 5 mg/day, Day 1

## Cc1ncc2n1-c1ccc(Cl)cc1C(c1ccccc1F)=NC2 [Midazolam, midazolam hydrochloride]
Sheep #498, 10 mg/day, Day 43
  MCH: 9.3 pg
  MCHC: 30.3 g/dL
  MCV: 30.9 fL
  Na+: 148 mEq/l
  RBC: 1.003e+07 µL⁻¹
  WBC: 9700 µL⁻¹
  Total Bili: 0.1 mg/dL
  K+: 4.0 mEq/l
  Phos: 5.8 Mg/dl
  Total Prot: 6.1 g/dL
Sheep #498, 10 mg/day, Day 43, ref 1-2.7
  Creatinine: 1.5 mg/dL
Sheep #498, 10 mg/day, Day 43, ref 2.4-3
  Albumin: 3.6 g/dL
Sheep #498, 10 mg/day, Day 43, result in words
  Platlet Count: Ade-
Sheep #518, 5 mg/day, Day 1
  ALT: 12.0 U/L
  AST: 112 U/L
  Alk Phos: 157 U/L
  BUN: 15 mg/dL
  CPK: 148 U/L
  Cholesterol: 96 mg/dL
  Differential Count: Eosin: 1%
  Differential Count: Lymph: 29%
  Differential Count: Seg: 70%
  Gamma GT: 79 U/L
  Glucose: 8.8 mg/dL
  Hct: 35.0%
  Hgb: 12.2 g/dL
  MCH: 9.6 pg
  MCHC: 31.4 G/dl
  MCV: 30.6 fL
  Na+: 154 mEq/l
  Platlet Count: 642000 µL⁻¹
  RBC: 1.144e+07 µL⁻¹
  WBC: 8400 µL⁻¹
  Total Bili: 0.2 mg/dL
  K+: 4.9 mEq/l
  Phos: 7.2 mg/dL
  Total Prot: 7.0 G/dl
Sheep #518, 5 mg/day, Day 1, ref 1-2.7
  Creatinine: 1.1 mg/dL
Sheep #518, 5 mg/day, Day 1, ref 2.4-3
  Albumin: 3.6 G/dl
Sheep #518, 5 mg/day, Day 3
  ALT: 10.0 U/L
  AST: 99 U/L
  Alk Phos: 99 U/L
  BUN: 5 mg/dL
  CPK: 834 U/L
  Cholesterol: 87 mg/dL
  Differential Count: Atyp lym: 1%
  Differential Count: Eosin: 1%
  Differential Count: Lymph: 47%
  Differential Count: Seg: 51%
  Gamma GT: 79 U/L
  Glucose: 122 mg/dL
  Hct: 33.0%
  Hgb: 11.3 g/dL
  MCH: 9.3 pg
  MCHC: 30.1 G/dl
  MCV: 30.7 fL
  Na+: 151 mEq/l
  Platlet Count: 546000 µL⁻¹
  RBC: 1.075e+07 µL⁻¹
  WBC: 6400 µL⁻¹
  Total Bili: 0.1 mg/dL
  K+: 4.4 mEq/l
  Phos: 5.7 mg/dL
  Total Prot: 6.6 G/dl
Sheep #518, 5 mg/day, Day 3, ref 1-2.7
  Creatinine: 1.4 mg/dL
Sheep #518, 5 mg/day, Day 3, ref 2.4-3
  Albumin: 3.8 G/dl
Sheep #518, 5 mg/day, Day 15
  ALT: 13.0 U/L
  AST: 74 U/L
  Alk Phos: 100 U/L
  BUN: 13 mg/dL
  CPK: 172 U/L
  Cholesterol: 83 mg/dL
  Differential Count: Eosin: 5%
  Differential Count: Lymph: 62%
  Differential Count: Seg: 33%
  Gamma GT: 90 U/L
  Glucose: 74 mg/dL
  Hct: 33.0%
  Hgb: 11.6 g/dL
  MCH: 9.6 pg
  MCHC: 31.3 G/dl
  MCV: 30.7 fL
  Na+: 151 mEq/l
  Platlet Count: 533000 µL⁻¹
  RBC: 1.208e+07 µL⁻¹
  WBC: 5300 µL⁻¹
  Total Bili: 0.1 mg/dL
  K+: 4.6 mEq/l
  Phos: 5.1 mg/dL
  Total Prot: 6.7 G/dl
Sheep #518, 5 mg/day, Day 15, ref 1-2.7
  Creatinine: 1.6 mg/dL
Sheep #518, 5 mg/day, Day 15, ref 2.4-3
  Albumin: 4.1 G/dl
Sheep #518, 5 mg/day, Day 43
  ALT: 12.0 U/L
  AST: 76 U/L
  Alk Phos: 89 U/L
  BUN: 7 mg/dL
  CPK: 787 U/L
  Cholesterol: 69 mg/dL
  Differential Count: Atyp lym: 1%
  Differential Count: Eosin: 4%
  Differential Count: Lymph: 48%
  Differential Count: Seg: 47%
  Gamma GT: 68 U/L
  Glucose: 89 mg/dL
  Hct: 44.6%
  Hgb: 13.7 g/dL
  MCH: 9.6 pg
  MCHC: 30.7 G/dl
  MCV: 31.1 fL
  Na+: 152 mEq/l
  Platlet Count: 448000 µL⁻¹
  RBC: 1.254e+07 µL⁻¹
  WBC: 4800 µL⁻¹
  Total Bili: 0.1 mg/dL
  K+: 4.6 mEq/l
  Phos: 6.4 mg/dL
  Total Prot: 6.2 G/dl
Sheep #518, 5 mg/day, Day 43, ref 1-2.7
  Creatinine: 1.7 mg/dL
Sheep #518, 5 mg/day, Day 43, ref 2.4-3
  Albumin: 3.5 G/dl
[1]
  Differential Count: Atyp lym: 0%
  Differential Count: Baso: 0%
  Differential Count: Eosin: 2%
  Differential Count: Lymph: 41%
  Differential Count: Mono: 4%
  Differential Count: Seg: 53%
  Hct: 31.5%
  Hgb: 10.8 g/dL
  MCH: 11.0 pg
  MCHC: 34.2 g/dL
  MCV: 32.3 fL
  Platlet Count: 848000 µL⁻¹
  RBC: 9.77e+06 µL⁻¹
  WBC: 6180 µL⁻¹
[2]
  ALT: 4 U/L
  AST: 63 U/L
  Albumin: 3.2 g/dL
  Alk Phos: 54 U/L
  BUN: 14 mg/dL
  CPK: 163 U/L
  Cholesterol: 71 mg/dL
  Creatinine: 1.3 mg/dL
  Differential Count: Atyp lym: 0%
  Differential Count: Baso: 0%
  Differential Count: Eosin: 2%
  Differential Count: Lymph: 55%
  Differential Count: Mono: 7%
  Differential Count: Seg: 36%
  Gamma GT: 55 U/L
